Experimental data taken from patent US8119663B2, “Heteroaryl-substituted piperidines” (Bayer Pharma Aktiengesellschaft, priority 2007, dated 2012).
Counter-ions that a name gives are not always drawn.

Target: T1, human protease activated receptor 1 (PAR1) (Homo sapiens, UniProt P25116)
T1 construct: the cell stably expresses the endogenous human PAR1 receptor and the endogenous purinergic receptor P2Y2; endogenous in cells; host or cells: HEK293-derived recombinant cell line constitutively expressing mitochondrial aequorin
T1 sequence (P25116 22-425): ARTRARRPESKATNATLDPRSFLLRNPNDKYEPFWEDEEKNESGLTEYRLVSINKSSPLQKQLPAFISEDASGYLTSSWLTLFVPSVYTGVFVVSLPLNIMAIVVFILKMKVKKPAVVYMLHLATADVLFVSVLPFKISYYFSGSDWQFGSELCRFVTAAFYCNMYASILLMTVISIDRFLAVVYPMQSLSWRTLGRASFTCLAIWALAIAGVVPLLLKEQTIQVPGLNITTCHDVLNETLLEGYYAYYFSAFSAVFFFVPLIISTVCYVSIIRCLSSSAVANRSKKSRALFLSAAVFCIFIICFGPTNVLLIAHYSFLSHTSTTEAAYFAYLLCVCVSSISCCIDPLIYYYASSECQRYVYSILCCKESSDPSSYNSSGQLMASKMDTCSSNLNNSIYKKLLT
Experiment: Cellular functional in vitro test (aequorin luminescence, PAR1 test cell)
Format: cell-based
Conditions: recombinant HEK293-derived cell line expressing aequorin; PAR1 agonist added at its EC50 5 minutes after test substance
Description: 1.a) Cellular Functional In vitro Test
A recombinant cell line is used to identify […] of the human protease activated receptor 1 (PAR1) and to quantify the activity of the substances described herein. The cell is originally derived from a human embryonal kidney cell (HEK293; ATCC: American Type Culture Collection, Manassas, Va. 20108, USA). The test cell line constitutively expresses a modified form of the calcium-sensitive photoprotein aequorin which, after reconstitution with the cofactor coelenterazine, emits light when the free calcium concentration in the inner mitochondrial compartment is increased (Rizzuto R, Simpson A W, Brini M, Pozzan T.; Nature 1992, 358, 325-327). Additionally, the cell stably expresses the endogenous human PAR1 receptor and the endogenous purinergic receptor P2Y2. The resulting PAR1 test cell responds to stimulation of the endogenous PAR1 or P2Y2 receptor with an intracellular release of calcium ions, which can be quantified through resulting aequorin luminescence with a suitable luminometer (Milligan G, Marshall F, Rees S, Trends in Pharmacological Sciences 1996, 17, 235-237).
For testing the substance specificity, its effect after activation of the endogenous PAR1 receptor is compared to the effect after activation of the endogenous purinergic P2Y2 receptor which utilizes the same intracellular signal path.
Test procedure: The cells are plated out two days (48 hours) before the test in culture medium (DMEM F12, supplemented with 10% FCS, 2 mM glutamine, 20 mM HEPES, 1.4 mM pyruvate, 0.1 mg/ml gentamycin, 0.15% Na bicarbonate; BioWhittaker Cat.# BE04-687Q; B-4800 Verviers, Belgium) in 384-well microtitre plates and kept in a cell incubator (96% atmospheric humidity, 5% V/V CO2, 37° C.). On the day of the test, the culture medium is replaced by a tyrode solution (in mM: 140NaCl, 5l KCl, 1MgCl2, 2CaCl2, 20 glucose, 20 HEPES), which additionally contains the cofactor coelenterazine (25 μM) and glutathione (4 mM), and the microtitre plate is then incubated for a further 3-4 hours. The test substances are then pipetted onto the microtitre plate, and 5 minutes after the transfer of the test substances into the wells of the microtitre plate the plate is transferred into the luminometer, a PAR1 agonist concentration which corresponds to the EC50 is added and the resulting light signal is immediately measured in the luminometer. To distinguish an antagonist substance action from a toxic action, the endogenous purinergic receptor is immediately subsequently activated with agonist (ATP, final concentration 10 μM) and the resulting light signal is measured.

| SMILES | IC50 [nM] |
| --- | --- |
| CN(C)Cc1nnc(C2CC(c3ccc(OC(F)(F)F)cc3)CN(C(=O)N3CCOCC3)C2)o1 (racemic) [Example 470, {3-{5-[(Dimethylamino)methyl]-1,3,4-oxadiazol-2-yl}-5-[4-(trifluoromethoxy)phenyl]piperidin-1-yl}(morpholin-4-yl)methanone] | 4.16 |
| CC(C)Cc1nnc(C2CC(c3ccc(OC(F)(F)F)cc3)CN(C(=O)N3CCOCC3)C2)o1 (racemic) [Example 474, {3-[5-(2-Methylpropyl)-1,3,4-oxadiazol-2-yl]-5-[4-(trifluoromethoxy)phenyl]piperidin-1-yl}-(morpholin-4-yl)methanone] | 23.4 |
| CCSCc1csc(C2CC(c3ccc(CC)cc3)CN(C(=O)N3CCOCC3)C2)n1 (racemic) [Example 484, [3-(4-Ethylphenyl)-5-{4-[(ethylsulphanyl)methyl]-1,3-thiazol-2-yl}piperidin-1-yl](morpholin-4-yl)methanone] | 76.6 |
| CC(C)(C)c1csc(C2CC(c3ccc(OC(F)(F)F)cc3)CN(C(=O)N3CCOCC3)C2)n1 (racemic) [Example 487, {3-(4-tert-Butyl-1,3-thiazol-2-yl)-5-[4-(trifluoromethoxy)phenyl]piperidin-1-yl}(morpholin-4-yl)-methanone] | 107 |
| CCc1csc(C2CC(c3ccc(OC(F)(F)F)cc3)CN(C(=O)N3CCOCC3)C2)n1 (racemic) [Example 490, {3-(4-Ethyl-1,3-thiazol-2-yl)-5-[4-(trifluoromethoxy)phenyl]piperidin-1-yl}(morpholin-4-yl)-methanone] | 25.1 |
| CC(C)c1nnc(C2CC(c3ccc(OC(F)(F)F)cc3)CN(C(=O)N3CCOCC3)C2)s1 (racemic) [Example 494, Morpholin-4-yl{3-[5-(propan-2-yl)-1,3,4-thiadiazol-2-yl]-5-[4-(trifluoromethoxy)phenyl]piperidin-1-yl}methanone] | 5.67 |
| O=C(N1CCOCC1)N1CC(c2ccc(OC(F)(F)F)cc2)CC(c2nnc(-c3ccccc3)s2)C1 (racemic) [Example 495, Morpholin-4-yl{3-(5-phenyl-1,3,4-thiadiazol-2-yl)-5-[4-(trifluoromethoxy)phenyl]piperidin-1-yl}-methanone] | 3.51 |
| O=C(N1CCOCC1)N1CC(c2ccc(OC(F)(F)F)cc2)CC(c2nc(C3CCC3)no2)C1 (racemic) [Example 513, {3-(3-Cyclobutyl-1,2,4-oxadiazol-5-yl)-5-[4-(trifluoromethoxy)phenyl]piperidin-1-yl}(morpholin-4-yl)methanone] | 5.16 |
| CCc1noc(C2CC(c3ccc(OC(F)(F)F)cc3)CN(C(=O)N3CCC(C#N)CC3)C2)n1 (racemic) [Example 519, 1-({3-(3-Ethyl-1,2,4-oxadiazol-5-yl)-5-[4-(trifluoromethoxy)phenyl]piperidin-1-yl}carbonyl)-piperidine-4-carbonitrile] | 20.8 |
| CC(C)c1noc(C2CC(c3ccc(OC(F)(F)F)cc3)CN(C(=O)N3CCC(C#N)CC3)C2)n1 (racemic) [Example 520, 1-({3-[3-(Propan-2-yl)-1,2,4-oxadiazol-5-yl]-5-[4-(trifluoromethoxy)phenyl]piperidin-1-yl}-carbonyl)piperidine-4-carbonitrile] | 11 |
| CN(C)Cc1nc(C2CC(c3ccc(C(F)(F)F)cc3)CN(C(=O)N3CCOCC3)C2)no1 (single isomer, unassigned) [Example 170, {3-{5-[(Dimethylamino)methyl]-1,2,4-oxadiazol-3-yl}-5-[4-(trifluoromethyl)phenyl]piperidin-1-yl}(morpholin-4-yl)methanone hydrochloride] | 18.8 |
| COCCc1noc(C2CC(c3ccc(OC(F)(F)F)cc3)CN(C(=O)N3CCOCC3)C2)n1 (single isomer, unassigned) [Example 178, {3-[3-(2-Methoxyethyl)-1,2,4-oxadiazol-5-yl]-5-[4-(trifluoromethoxy)phenyl]piperidin-1-yl}-(morpholin-4-yl)methanone] | 17.1 |
| COCCc1noc(C2CC(c3cccc(OC(F)(F)F)c3)CN(C(=O)N3CCOCC3)C2)n1 (single isomer, unassigned) [Example 194, {3-[3-(2-Methoxyethyl)-1,2,4-oxadiazol-5-yl]-5-[3-(trifluoromethoxy)phenyl]piperidin-1-yl}-(morpholin-4-yl)methanone] | 66.1 |
| Cc1noc(C2CC(c3ccc(OC(F)(F)F)cc3)CN(C(=O)N3CCOCC3)C2)n1 (single isomer, unassigned) [Example 239, {3-(3-Methyl-1,2,4-oxadiazol-5-yl)-5-[4-(trifluoromethoxy)phenyl]piperidin-1-yl}(morpholin-4-yl)methanone] | 5.74 |
| Cc1noc(C2CC(c3ccc(C(F)(F)F)cc3)CN(C(=O)N3CCC(O)CC3)C2)n1 (single isomer, unassigned) [Example 260, (4-Hydroxypiperidin-1-yl){(3-(3-methyl-1,2,4-oxadiazol-5-yl)-5-[4-trifluoromethyl)phenyl]-piperidin-1-yl}methanone] | 11.4 |
| COCCc1noc(C2CC(c3ccc(C(F)(F)F)cc3)CN(C(=O)N3CCC(O)CC3)C2)n1 (single isomer, unassigned) [Example 275, (4-Hydroxypiperidin-1-yl) {3-[3-(2-methoxyethyl)-1,2,4-oxadiazol-5-yl]-5-[4-(trifluoromethyl)-phenyl]piperidin-1-yl}methanone] | 10.3 |
| COCCc1noc(C2CC(c3ccc(C(F)(F)F)cc3)CN(C(=O)N3CCC(O)CC3)C2)n1 (single isomer, unassigned) [Example 276, (4-Hydroxypiperidin-1-yl) {3-[3-(2-methoxyethyl)-1,2,4-oxadiazol-5-yl]-5-[4-(trifluoromethyl)-phenyl]piperidin-1-yl}methanone] | 25.3 |
| COCCc1noc(C2CC(c3ccc(C(F)(F)F)cc3)CN(C(=O)N3CC(O)C3)C2)n1 (single isomer, unassigned) [Example 279] | 14.7 |
| COCCc1noc(C2CC(c3ccc(OC(F)(F)F)c(C)c3)CN(C(=O)N3CCOCC3)C2)n1 (single isomer, unassigned) [Example 322, {3-[3-(2-Methoxyethyl)-1,2,4-oxadiazol-5-yl]-5-[3-methyl-4-(trifluoromethoxy)phenyl]piperidin-1-yl}(morpholin-4-yl)methanone] | 3.01 |
| Cc1noc(C2CC(c3ccc(C(F)(F)F)cc3)CN(C(=O)N3CCOCC3)C2)n1 (single isomer, unassigned) [Example 335, {3-(3-Methyl-1,2,4-oxadiazol-5-yl)-5-[4-(trifluoromethyl)phenyl]piperidin-1-yl}(morpholin-4-yl)-methanone] | 25.1 |
| COCCc1noc(C2CC(c3ccc(OC(F)(F)F)cc3)CN(C(=O)N3CCC(O)CC3)C2)n1 (single isomer, unassigned) [Example 449, (4-Hydroxypiperidin-1-yl) {3-[3-(2-methoxyethyl)-1,2,4-oxadiazol-5-yl]-5-[4-(trifluoromethoxy)-phenyl]piperidin-1-yl}methanone] | 86.3 |
| CC(C)c1noc(C2CC(c3ccc(OC(F)(F)F)cc3)CN(C(=O)N3CCC(O)CC3)C2)n1 (single isomer, unassigned) [Example 451, (4-Hydroxypiperidin-1-yl){3-[3-(propan-2-yl)-1,2,4-oxadiazol-5-yl]-5-[4-(trifluoromethoxy)phenyl]piperidin-1-yl}methanone] | 19.6 |
| Cc1noc(C2CC(c3ccc(OC(F)(F)F)cc3)CN(C(=O)N3CCC(O)CC3)C2)n1 (single isomer, unassigned) [Example 454, (4-Hydroxypiperidin-1-yl){3-(3-methyl-1,2,4-oxadiazol-5-yl)-5-[4-(trifluoromethoxy)phenyl]piperidin-1-yl}methanone] | 47.5 |
